Assay results: article PMC10655391, “Inhibition of Hsp110-STAT3 interaction in endothelial cells alleviates vascular remodeling in hypoxic pulmonary arterial Hypertension model” (Respiratory Research, 2023)

Target: T1, Hsp110 (Homo sapiens, UniProt Q92598)
T1 construct: gene HSPH1; purified recombinant human Hsp110 (His6-SUMO tag cleaved)
Experiment: luciferase anti-aggregation assay with purified Hsp110 at […] (single concentration)
Type: biochemical
Conditions: read-out: % reduction of anti-aggregating activity at 100 μM

T1 sequence (Q92598 whole entry): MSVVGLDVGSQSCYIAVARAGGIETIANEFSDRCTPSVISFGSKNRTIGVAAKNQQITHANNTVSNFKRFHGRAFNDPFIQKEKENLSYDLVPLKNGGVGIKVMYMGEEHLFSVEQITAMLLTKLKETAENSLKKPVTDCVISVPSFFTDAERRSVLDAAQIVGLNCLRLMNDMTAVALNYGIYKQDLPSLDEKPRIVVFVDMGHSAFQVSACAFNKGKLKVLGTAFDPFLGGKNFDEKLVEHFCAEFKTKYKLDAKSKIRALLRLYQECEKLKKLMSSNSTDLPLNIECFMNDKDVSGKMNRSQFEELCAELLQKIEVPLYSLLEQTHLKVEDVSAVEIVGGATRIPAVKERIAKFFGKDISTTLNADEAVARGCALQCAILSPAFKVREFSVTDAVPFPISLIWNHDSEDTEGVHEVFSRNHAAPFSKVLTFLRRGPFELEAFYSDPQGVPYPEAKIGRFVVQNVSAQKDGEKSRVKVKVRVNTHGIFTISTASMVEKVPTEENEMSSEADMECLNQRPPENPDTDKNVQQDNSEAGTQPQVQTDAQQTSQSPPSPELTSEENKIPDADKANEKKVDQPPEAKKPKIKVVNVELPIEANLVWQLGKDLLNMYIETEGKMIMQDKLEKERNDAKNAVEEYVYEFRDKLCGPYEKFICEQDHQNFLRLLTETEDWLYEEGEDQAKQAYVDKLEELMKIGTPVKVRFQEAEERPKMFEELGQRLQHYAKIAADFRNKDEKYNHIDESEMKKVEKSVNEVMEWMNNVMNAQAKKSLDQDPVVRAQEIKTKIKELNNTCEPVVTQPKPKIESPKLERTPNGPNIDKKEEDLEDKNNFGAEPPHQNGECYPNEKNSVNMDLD

| inhibition at 100 µM [%] | Structure (SMILES) |
| --- | --- |
| > 50 | Cc1nn(-c2ccccc2)c2nc(OCc3cnc(Cl)s3)c(-c3nc(N)cc(N)n3)cc12 [compound 8] |
| > 50 | Cc1ccccc1COc1nc2c(cc1-c1nc(N)cc(N)n1)c(C)nn2-c1ccccc1 [compound 5] |
